Assay [1] relates to Cdc2 (Cdk1) tyrosine 15-phosphorylation in NCI-H1299 cells. In words: Cdc2 (Cdk1) tyrosine 15-phosphorylation-inhibitory effect in camptothecin-treated NCI-H1299 cells (ELISA). In kind it is cell-based. The conditions noted are these: Homo sapiens; NCI-H1299, camptothecin 200 nM 16 hours, then test compound + nocodazole 8 hours; read-out: Cdc2-Y15 Phosphorylation-Inhibitory Effect (H1299, + camptothecin) (EC50). From the text:
Pharmacological Test 2 (Method of Determining Drug Potency with Cells (Cdc2 (Cdk1) Tyrosine 15-Phosphorylation-Inhibitory Effect))
Fetal bovine serum (FBS) was obtained from Morgate; media RPMI1640 and DMEM were from Invitrogen; camptothecin was from Sigma; gemcitabine was from Nippon Eli Lilly; nocodazole and protease inhibitor cocktail were from Sigma; rabbit anti-Cdc2 antibody and mouse anti-Cdc2 antibody were from Santa Cruz Biotechnology; rabbit anti-tyrosine 15-phosphorylated Cdc2 antibody and horseradish peroxidase-labeled anti-mouse IgG antibody were from Cell Signaling Technology; sure blue reserve TMB peroxidase substrate was from Kirkegaard and Perry Laboratories.
Human non-small cell lung cancer cells (NCI-H1299) and human colon cancer cells (WiDr) were obtained from American Type Culture Collection (ATCC).
In the method of using NCI-H1299 cells, the cells were suspended in a medium of 10% FBS-added RPMI1640, and the cell suspension was applied to a 96-well Nunclondelta-processed plastic plate (bought from Nunc), in an amount of 2000 cells/100 μL/well, in which the cells were incubated overnight in 5% CO2-95% air at 37° C. Camptothecin was dissolved in dimethylsulfoxide (DMSO), and diluted with a medium of 10% FBS-added RPMI1640, and then this was applied to the plate on which the cells had been previously sowed, in an amount of 50 μL/well in such a manner that the final concentration of camptothecin could be 200 nM. Then, the cells were incubated for 16 hours at 37° C. in 5% CO2-95% air. The test compound was stepwise diluted with DMSO, then diluted with 4000 nM nocodazole-containing, 10% FBS-added RPMI1640, and applied to the plate on which the camptothecin-treated cells had been sowed, in an amount of 50 μL/well. The cells were incubated for 8 hours at 37° C. in 5% CO2-95% air, then the culture was removed, and a cytolytic buffer was added to the plate in an amount of 100 μL/well, shaken at 4° C. for 2 hours, then frozen at −80° C., and thawed to give a cell solution. Cdc2 and tyrosine 15-phosphorylated Cdc2 in the cell solution were determined through enzyme-linked immunosorbent assay (ELISA), and the ratio of tyrosine 15-phosphorylated Cdc2 to Cdc2 was calculated to obtain the 50% phosphorylation-inhibitory concentration of the test compound to the cells (EC50, nM). The cytolytic buffer used herein is an aqueous solution containing 20 mM Hepes (pH 7.5), 150 mM sodium chloride, 1 mM disodium ethylenediaminetetraacetate, 0.1% polyoxyethylene (10) octylphenyl ether, 1% protease inhibitor cocktail, 1 mM dithiothreitol, 2 mM sodium orthovanadate, 10 mM sodium fluoride and 10 mM glycerol diphosphate. Cdc2 was determined through ELISA as follows: A rabbit anti-Cdc2 antibody solution, which had been diluted 200-fold with 50 mM carbonate-bicarbonate buffer (pH 9.6), was applied to a 96-well maxisorpimmuno plate (bought from Nunc), in an amount of 50 μL/well, and statically kept overnight at 4° C. so as to fix the antibody on the plate. Next, this was washed three times with phosphate-buffered physiological saline (PBS), and 5% bovine serum albumin-containing PBS (5% BSA/PBS) was added thereto in an amount of 300 μL/well, and statically kept at room temperature for 2 hours, and then again washed three times with PBS. A mouse anti-Cdc2 antibody solution that had been diluted 100-fold with 0.05% polyoxyethylene sorbitan monolaurate and 1% BSA-containing Tris-HCl-buffered physiological saline (1% BSA/TBS-T) was added to it in an amount of 50 μL/well, and the cell solution was added thereto in an amount of 5 μL/well and statically kept overnight at 4° C. Next, this was washed three times with 0.05% polyoxyethylene sorbitan monolaurate and 0.1% BSA-containing Tris-HCl-buffered physiological saline (0.1% BSA/TBS-T), and then a horseradish peroxidase-labeled anti-mouse IgG antibody solution that had been diluted 2000-fold with 1% BSA/TBS-T was added thereto in an amount of 70 μL/well, and statically kept at room temperature for 3 hours. […]
(ELISA stands for enzyme-linked immunosorbent assay.)

The target of another assay is T1, Wee1 kinase (Homo sapiens, UniProt P30291).
T1 construct: made in house; host or cells: Sf9 insect cells (recombinant baculovirus)
Briefly: Wee1 kinase-inhibitory effect (33P-ATP, Poly(Lys,Tyr) substrate, filter assay). In kind it is biochemical. Particulars: 10 μM ATP, 30° C., 30 minutes. The source says:
Pharmacological Test 1 (Wee1 Kinase-Inhibitory Effect)
(1) Purification of Wee1 Kinase:
A cDNA of Wee1 kinase with […] (GST) fused at the amino terminal thereof was inserted into a baculovirus expression vector to construct a recombinant baculovirus, with which cells of an insect cell line Sf9 were infected for high expression therein. The infected cells were recovered and solubilized, and then the GST-tagged Wee1 kinase protein was adsorbed by a glutathion column, and eluted from the column with glutathion, and the active fraction was desalted in a desalting column to give a purified enzyme.
(2) Determination of Wee1 Kinase Activity:
In determination of the Wee1 kinase activity, a synthetic peptide, Poly(Lys,Tyr) Hydrobromide (Lys:Tyr (4:1)) bought from Sigma was used as the substrate.
The amount of the reaction liquid was 21.1 μL; and the composition of the reaction buffer was 50 mM Tris-HCl buffer (pH 7.4)/10 mM magnesium chloride/1 mM dithiothreitol. The purified Wee1 kinase, 2.5 μg of the substrate peptide, 10 μM of non-labeled adenosine triphosphate (ATP) and 1 μCi of [γ-^33P]-labeled ATP (2500 Ci/mmol or more) were added to it, and reacted at 30° C. for 30 minutes. Next, 10 μL of 350 mM phosphate buffer was added to the reaction system to stop the reaction. The substrate peptide was adsorbed by a P81 paper filter 96-well plate, then washed a few times with 130 mM phosphate buffer, and its radioactivity was counted with a liquid scintillation counter. The [γ-^33P]-labeled ATP was bought from Amersham Bioscience.
To add the test compound to the reaction system, the compound was diluted with dimethylsulfoxide (DMSO) to prepare a series of dilutions. 1.1 μL of each dilution was added to the reaction system. As a control, 1.1 μL of DMSO was added to the reaction system.

pEC50, pIC50: −log10 of the molar value.

T1 sequence (P30291 whole entry): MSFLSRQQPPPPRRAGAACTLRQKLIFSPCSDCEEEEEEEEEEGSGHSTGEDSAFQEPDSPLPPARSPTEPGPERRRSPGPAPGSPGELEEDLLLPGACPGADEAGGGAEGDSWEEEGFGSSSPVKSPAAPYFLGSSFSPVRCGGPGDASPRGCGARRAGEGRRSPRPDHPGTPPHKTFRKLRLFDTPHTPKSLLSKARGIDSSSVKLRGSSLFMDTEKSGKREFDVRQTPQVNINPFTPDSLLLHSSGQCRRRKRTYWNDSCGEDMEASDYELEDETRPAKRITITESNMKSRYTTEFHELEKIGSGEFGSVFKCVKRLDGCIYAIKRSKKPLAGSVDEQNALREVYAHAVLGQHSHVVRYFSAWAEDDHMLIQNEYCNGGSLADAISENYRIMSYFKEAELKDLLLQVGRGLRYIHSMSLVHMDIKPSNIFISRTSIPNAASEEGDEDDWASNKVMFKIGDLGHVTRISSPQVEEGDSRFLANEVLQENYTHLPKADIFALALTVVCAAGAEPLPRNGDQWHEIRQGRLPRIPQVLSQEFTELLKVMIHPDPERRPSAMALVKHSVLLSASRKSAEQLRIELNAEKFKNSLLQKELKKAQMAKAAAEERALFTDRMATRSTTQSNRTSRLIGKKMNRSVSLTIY

Usually pEC50 stands for the negative decadic logarithm of the EC50, by convention in mol/L. In general, pIC50 refers to −log10 of the IC50, conventionally taken in molar units. A high value points to a low IC50. Take `CN1CCc2cc(Nc3ncc4c(=N)n(-c5c(Cl)cccc5Cl)c(=O)[nH]c4n3)ccc2C1(C)C` [Example 4, 3-(2,6-dichlorophenyl)-4-imino-7-[(1,1,2-trimethyl-1,2,3,4-tetrahydroisoquinolin-6-yl)amino]-3,4-dihydropyrimido[4,5-d]pyrimidin-2(1H)-one]: in assay [1], the pEC50 was 7.55. This molecule had a pIC50 at Wee1 kinase of 8.08. On to `CN1CCc2cc(Nc3ncc4c(=N)n(-c5c(Cl)ccnc5Cl)c(=O)[nH]c4n3)ccc2C1(C)C` [Example 5, 3-(2,4-dichloropyridin-3-yl)-4-imino-7-{[1,1,2-trimethyl-1,2,3,4-tetrahydroisoqunolin-6-yl]amino}-3,4-dihydropyrimido[4,5-d]pyrimidin-2(1H)-one], for which, in assay [1], the negative-log EC50 (pEC50) is 7.15. This molecule showed a pIC50 against Wee1 kinase of 8.02. Regarding `CN(C)C1Cc2ccc(Nc3ncc4c(=N)n(-c5c(Cl)cccc5Cl)c(=O)n(C)c4n3)cc2C1` (stereo not drawn) [Example 9], the pEC50 in assay [1] is 7.62. Besides, the pIC50 at Wee1 kinase is 8.18. `CN(C)C1CC(C)(C)c2ccc(Nc3ncc4c(=N)n(-c5c(Cl)cccc5Cl)c(=O)[nH]c4n3)cc21` (stereo not drawn) [Example 10]: in assay [1], the pEC50 is 7.21. The pIC50 on Wee1 kinase was 7.88. `Cc1cccc(Cl)c1-n1c(=O)[nH]c2nc(Nc3ccc4c(c3)CN(C)CC43CC3)ncc2c1=N` [Example 14, 3-(2-chloro-6-methylphenyl)-4-imino-7-[(2′-methyl-2′,3′-dihydro-1′H-spiro[cyclopropane-1,4′-isoquinolin]-7′-yl)amino]-3,4-dihydropyrimido[4,5-d]pyrimidin-2(1H)-one]: in assay [1], the pEC50 is 7.11. Besides, the pIC50 against Wee1 kinase was 7.98. Consider `CN1CCc2ccc(Nc3ncc4c(=N)n(-c5c(F)cccc5Cl)c(=O)[nH]c4n3)cc2C1` [Example 16, 3-(2-chloro-6-fluorophenyl)-4-imino-7-{[2-methyl-1,2,3,4-tetrahydroisoquinolin-7-yl]amino}-3,4-dihydropyrimido[4,5-d]pyrimidin-2(1H)-one], for which the negative-log EC50 (pEC50) in assay [1] is 7.30. At Wee1 kinase, the negative logarithm of the IC50 (pIC50) is 8.17.

Consider `CN1CCc2ccc(Nc3ncc4c(=N)n(-c5c(F)cc(F)cc5Cl)c(=O)[nH]c4n3)cc2C1` [Example 17, 3-(2-chloro-4,6-difluorophenyl)-4-imino-7-{[2-methyl-1,2,3,4-tetrahydroisoquinolin-7-yl]amino}-3,4-dihydropyrimido[4,5-d]pyrimidin-2(1H)-one], for which, in assay [1], the pEC50 is 7.33. For the same molecule, the pIC50 against Wee1 kinase is 8.04. On the same counts, the results for `CN1CCc2ccc(Nc3ncc4c(=N)n(-c5c(Cl)cc(F)cc5Cl)c(=O)[nH]c4n3)cc2C1` [Example 18, 3-(2,6-dichloro-4-fluorophenyl)-4-imino-7-{[2-methyl-1,2,3,4-tetrahydroisoquinolin-7-yl]amino}-3,4-dihydropyrimido[4,5-d]pyrimidin-2(1H)-one] are 7.46 and 8.05. On the same counts, the results for `Cc1cc(Nc2ncc3c(=N)n(-c4c(Cl)cccc4Cl)c(=O)[nH]c3n2)cc2c1CCN(C)C2` [Example 21, 3-(2,6-dichlorophenyl)-7-{[2,5-dimethyl-1,2,3,4-tetrahydroisoquinolin-7-yl]amino}-4-imino-3,4-dihydropyrimido[4,5-d]pyrimidin-2(1H)-one] are 7.96 and 8.32. Take `Cn1c(=O)n(-c2c(Cl)cccc2Cl)c(=N)c2cnc(Nc3ccc4c(c3)CCN(CCO)C4(C)C)nc21` [Example 22, 3-(2,6-dichlorophenyl)-7-{[2-(2-hydroxyethyl)-1,1-dimethyl-1,2,3,4-tetrahydroisoquinolin-6-yl]amino}-4-imino-1-methyl-3,4-dihydropyrimido[4,5-d]pyrimidin-2(1H)-one]: the pEC50 in assay [1] was 7.80. Also, on Wee1 kinase, the negative logarithm of the IC50 (pIC50) was 8.28.

`CCN1CCc2cc(Nc3ncc4c(=N)n(-c5c(Cl)cccc5Cl)c(=O)[nH]c4n3)ccc2C1` [Example 30, 3-(2,6-dichlorophenyl)-4-imino-7-{[2-ethyl-1,2,3,4-tetrahydroisoquinolin-6-yl]amino}-3,4-dihydropyrimido[4,5-d]pyrimidin-2(1H)-one]: the pEC50 in assay [1] is 7.60. The pIC50 on Wee1 kinase was 8.15. For the molecule `CN(C)C1Cc2ccc(Nc3ncc4c(=N)n(-c5c(Cl)cccc5Cl)c(=O)[nH]c4n3)cc2C1` (stereo not drawn) [Example 39], the negative-log EC50 (pEC50) in assay [1] is 7.43. The same molecule gave a pIC50 at Wee1 kinase of 8.19. `CN(C)C1CCc2ccc(Nc3ncc4c(=N)n(-c5c(Cl)cccc5Cl)c(=O)[nH]c4n3)cc2C1` (stereo not drawn) [Example 43]: the pEC50 in assay [1] was 7.35. This molecule showed a negative logarithm of the IC50 (pIC50) against Wee1 kinase of 8.29. As for `CN1CCc2ccc(Nc3ncc4c(=N)n(-c5c(Cl)cccc5Cl)c(=O)[nH]c4n3)cc2CC1` [Example 48, 3-(2,6-dichlorophenyl)-4-imino-7-[(3-methyl-2,3,4,5-tetrahydro-1H-3-benzazepin-7-yl)amino]-3,4-dihydropyrimido[4,5-d]pyrimidin-2(1H)-one], the pEC50 in assay [1] was 7.27. The molecule also had a pIC50 against Wee1 kinase of 8.07. For the molecule `CN(C)CC1CCc2cc(Nc3ncc4c(=N)n(-c5c(Cl)cccc5Cl)c(=O)[nH]c4n3)ccc2C1` (stereo not drawn) [Example 53], in assay [1], the pEC50 was 7.23. This molecule showed a pIC50 at Wee1 kinase of 8.19. On to `CC(=O)N1CCc2cc(Nc3ncc4c(=N)n(-c5c(Cl)cccc5Cl)c(=O)[nH]c4n3)ccc2C1(C)C` [Example 79, 7-[(2-acetyl-1,1-dimethyl-1,2,3,4-tetrahydroisoquinolin-6-yl)amino]-3-(2,6-dichlorophenyl)-4-imino-3,4-dihydropyrimido[4,5-d]pyrimidin-2(1H)-one], for which the pIC50 against Wee1 kinase was 8.20. `CN1Cc2cc(Nc3ncc4c(=O)n(-c5c(Cl)cccc5Cl)c(=O)[nH]c4n3)ccc2C2(CC2)C1` [Example 82, 3-(2,6-dichlorophenyl)-7-[(2′-methyl-2′,3′-dihydro-1′H-spiro[cyclopropane-1,4′-isoquinolin]-7′-yl)amino]pyrimido[4,5-d]pyrimidin-2,4(1H,3H)-dione]: the negative logarithm of the EC50 (pEC50) in assay [1] was 7.52. The same molecule had a pIC50 against Wee1 kinase of 8.48.

For the origin of these results see patent US8436004B2, “Bicycloaniline derivative” (MSD K.K., priority 2007, dated 2013).
